# Earlier results, collected in patent publication US20150056194A1, “MODIFIED GREEN TEA POLYPHENOLS AND METHODS THEREOF FOR TREATING LIVER DISEASE” (priority 2013, published 2015).
# How the values were obtained:
# [1] = animals receiving tea preparations in cancer prevention studies
# influenza = conditions: compared with EGCG
Compound,blood levels [1],"anti-influenza activity, times more effective than EGCG (influenza) [times]"
"O=C(O[C@@H]1Cc2c(O)cc(O)cc2O[C@@H]1c1cc(O)c(O)c(O)c1)c1cc(O)c(O)c(O)c1 [EGCG, (−)-Epigallocatechin-3-gallate]",lower than 0.5 μuM,
EGCG-palmitate,,24
